Experimental findings from patent US20220402900A1, “1,2,4-OXADIAZOL-5-ONE DERIVATIVES FOR THE TREATMENT OF CANCER” (Basilea Pharmaceutica International AG, priority 2019, published 2022) are described below.

The structures appear in SMILES notation.

Assay [1] concerns the target T1, human TEAD2 (amino acids 217-447) (Homo sapiens, UniProt Q15562).
T1 construct: human TEAD2 (amino acids 217-447); His-tag (N); purchased Proteros biostructures PR-0365; host or cells: E. coli
Briefly: Thermal shift assay (TSA). In kind it is binding. As to conditions: 3 μM recombinant TEAD2, compound 7 μM, shift vs DMSO control. As to the method:
The thermal shift assay (TSA) was utilized to characterize target engagement in vitro based on ligand-dependent thermal stabilization of the protein. N-terminally His-tagged human TEAD2 (amino acids 217-447) expressed and purified from E. coli was purchased from Proteros biostructures (cat no. PR-0365). The melting reactions were performed in white, 96 well qPCR plates (Roche Diagnostics, cat. no. 04 729 692 001) in 20 mM HEPES pH 7, 100 mM NaCl in the presence of 4×SYPRO orange (Sigma, cat. no. S5692). Each well contained 3 μM recombinant TEAD2 and either DMSO (control) or experimental compounds at a final concentration of 7 μM. The total volume was 20 μL and the final DMSO concentration was 1%. The plate was sealed and analyzed in a LightCycler 480 II (Roche Diagnostics) by continuously reading the fluorescence using the 465-580 nm filter set while heating from 25° C. to 95° C. using a linear gradient of 1° C./min. Melting temperatures were determined by numerical differentiation using the LightCycler Thermal Shift Analysis software (Roche Diagnostics). The shifts in melting temperature caused by experimental compounds compared to the control are expressed as ΔTm (Table 2).

Assay [2] relates to TEAD reporter gene activity. As to the kind of experiment: TEAD reporter gene assay (MCF7 TEAD reporter cell line). It is filed as cell-based. Conditions: Homo sapiens; TEAD luciferase reporter in MCF7 cells, 24 hours; read-out: IC50 TEAD RGA (converted). The source says:
A TEAD reporter cell line was purchased from BPS Bioscience (cat. no. 60618). It contains the firefly luciferase gene under control of TEAD responsive elements stably integrated into the human breast cancer MCF7 cells. In proliferating cells, a basal level of unphosphorylated YAP/TAZ resides in the nucleus and drives the TEAD-dependent expression of the luciferase reporter. The cells were cultivated as recommended by the supplier. Inhibition of TEAD reporter gene activity by experimental compounds was measured using white, clear-bottom, 96 well cell culture plates (Greiner Bio-One, cat. no. 655098). The cells were seeded at a density of 20,000 cells per well in 100 μL growth medium and the plates were incubated overnight at 37° C. with 5% CO2 prior to treatment. Experimental compounds were serially diluted in DMSO to 200× the desired final concentrations. 0.5 μL aliquots of DMSO or the test samples were then mixed into the wells and the cells were further incubated for 24 hours. Luminescence was then measured on a Synergy 4 reader (BioTek) using the ONE-Glo Luciferase Assay System (Promega, cat. no. E6120) according to the manufacturer's instructions. Relative inhibition values were calculated by normalizing the raw data using DMSO-treated cells (0% inhibition) and wells devoid of cells (100% inhibition). IC50 values were calculated by fitting concentration-response data to a sigmoidal 4-parameter logistic model.
Background: A reporter such as luciferase makes a cellular process visible.

T1 sequence (Q15562 217-447): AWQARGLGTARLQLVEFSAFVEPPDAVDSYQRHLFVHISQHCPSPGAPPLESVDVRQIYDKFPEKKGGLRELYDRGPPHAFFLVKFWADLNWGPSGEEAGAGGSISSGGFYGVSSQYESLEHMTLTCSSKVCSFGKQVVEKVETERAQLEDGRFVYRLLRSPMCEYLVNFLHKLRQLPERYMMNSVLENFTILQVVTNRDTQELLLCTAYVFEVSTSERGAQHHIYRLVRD

Consider `CNc1cnc(Nc2ccc(C(F)(F)F)cc2)c(-c2noc(=O)[nH]2)c1` [Example 46, 3-[5-(methylamino)-2-[4-(trifluoromethyl)anilino]-3-pyridyl]-4H-1,2,4-oxadiazol-5-one], for which the ΔTm at 7 µM in assay [1] amounted to 7.1 °C. Besides, in assay [2], the half-maximal inhibitory concentration (IC50) was 407 nM.
As to `Cc1cc(-c2noc(=O)[nH]2)c(Nc2ccc(C(F)(F)F)cc2)nc1C` [Example 47, 3-[5,6-dimethyl-2-[4-(trifluoromethyl)anilino]-3-pyridyl]-4H-1,2,4-oxadiazol-5-one], the ΔTm at 7 µM in assay [1] is 18 °C. Also, the IC50 in assay [2] is 72 nM.
As for `O=c1[nH]c(-c2c(OCCO)ccnc2Nc2ccc(Cl)cc2)no1` [Example 48, 3-[2-(4-chloroanilino)-4-(2-hydroxyethoxy)-3-pyridyl]-4H-1,2,4-oxadiazol-5-one], in assay [1], the ΔTm at 7 µM was found to be 1.9 °C. In assay [2], the half-maximal inhibitory concentration (IC50) is 507 nM.
The matching figures for `O=c1[nH]c(-c2c(Nc3ccc(C(F)(F)F)cc3)ncc3c2CCC3)no1` [Example 49, 3-[3-[4-(trifluoromethyl)anilino]-6,7-dihydro-5H-cyclopenta[c]pyridin-4-yl]-4H-1,2,4-oxadiazol-5-one]: 0.6 °C and 649 nM.
For `O=c1[nH]c(-c2nccnc2Nc2ccc(S(F)(F)(F)(F)F)cc2)no1` [Example 50, 3-[3-[4-(pentafluoro-λ6-sulfanyl)anilino]pyrazin-2-yl]-4H-1,2,4-oxadiazol-5-one] the same measures were 12.2 °C and 37 nM.
`O=c1[nH]c(-c2c(OCCO)ccnc2Nc2ccc(C(F)(F)F)cc2)no1` [Example 51, 3-[4-(2-hydroxyethoxy)-2-[4-(trifluoromethyl)anilino]-3-pyridyl]-4H-1,2,4-oxadiazol-5-one]: in assay [1], the ΔTm at 7 µM is 5.1 °C. The IC50 in assay [2] is 135 nM.
For `CC(C)Oc1ccnc(Nc2ccc(C(F)(F)F)cc2)c1-c1noc(=O)[nH]1` [Example 52, 3-[4-isopropoxy-2-[4-(trifluoromethyl)anilino]-3-pyridyl]-4H-1,2,4-oxadiazol-5-one], in assay [1], the shift in melting temperature (ΔTm) at 7 µM came to 5.1 °C. In assay [2], the IC50 was 179 nM.
The matching figures for `CC(C)(C)Oc1ccnc(Nc2ccc(C(F)(F)F)cc2)c1-c1noc(=O)[nH]1` [Example 53, 3-[4-tert-butoxy-2-[4-(trifluoromethyl)anilino]-3-pyridyl]-4H-1,2,4-oxadiazol-5-one]: 3.7 °C and 815 nM.
For the compound `O=c1[nH]c(-c2c(OCCNCCO)ccnc2Nc2ccc(C(F)(F)F)cc2)no1` [Example 54, 3-[4-[2-(2-hydroxyethylamino)ethoxy]-2-[4-(trifluoromethyl)anilino]-3-pyridyl]-4H-1,2,4-oxadiazol-5-one], the thermal shift (ΔTm) at 7 µM in assay [1] came to 0.9 °C. Further, the IC50 in assay [2] is 357 nM.
With `NCCOc1ccnc(Nc2ccc(C(F)(F)F)cc2)c1-c1noc(=O)[nH]1` [Example 55, 3-[4-(2-aminoethoxy)-2-[4-(trifluoromethyl)anilino]-3-pyridyl]-4H-1,2,4-oxadiazol-5-one], the ΔTm at 7 µM in assay [1] is 1 °C. Also, the IC50 in assay [2] was 281 nM.
For `CC(=O)NCCOc1ccnc(Nc2ccc(C(F)(F)F)cc2)c1-c1noc(=O)[nH]1` [Example 56, N-[2-[[3-(5-oxo-4H-1,2,4-oxadiazol-3-yl)-2-[4-(trifluoromethyl)anilino]-4-pyridyl]oxy]ethyl]acetamide] the same measures were 4.3 °C and 767 nM.
The matching figures for `CS(=O)(=O)NCCOc1ccnc(Nc2ccc(C(F)(F)F)cc2)c1-c1noc(=O)[nH]1` [Example 57, N-[2-[[3-(5-oxo-4H-1,2,4-oxadiazol-3-yl)-2-[4-(trifluoromethyl)anilino]-4-pyridyl]oxy]ethyl]methanesulfonamide]: 4.1 °C and 388 nM.
The matching figures for `O=C(O)COc1ccnc(Nc2ccc(C(F)(F)F)cc2)c1-c1noc(=O)[nH]1` [Example 58, 2-[[3-(5-oxo-4H-1,2,4-oxadiazol-3-yl)-2-[4-(trifluoromethyl)anilino]-4-pyridyl]oxy]acetic acid]: 3 °C and 13700 nM.
As to `NC(=O)COc1ccnc(Nc2ccc(C(F)(F)F)cc2)c1-c1noc(=O)[nH]1` [Example 59, 2-[[3-(5-oxo-4H-1,2,4-oxadiazol-3-yl)-2-[4-(trifluoromethyl)anilino]-4-pyridyl]oxy]acetamide], the ΔTm at 7 µM in assay [1] is 6.7 °C. In addition, the IC50 in assay [2] was 2750 nM.
Consider `O=c1[nH]c(-c2c(OCCN3CCOCC3)ccnc2Nc2ccc(C(F)(F)F)cc2)no1` [Example 60, 3-[4-(2-morpholinoethoxy)-2-[4-(trifluoromethyl)anilino]-3-pyridyl]-4H-1,2,4-oxadiazol-5-one], for which the ΔTm at 7 µM in assay [1] was 1.3 °C. In assay [2], the IC50 is 465 nM.
For `O=c1[nH]c(-c2c(OCCc3ccccn3)ccnc2Nc2ccc(C(F)(F)F)cc2)no1` [Example 61, 3-[4-[2-(2-pyridyl)ethoxy]-2-[4-(trifluoromethyl)anilino]-3-pyridyl]-4H-1,2,4-oxadiazol-5-one] the same measures were 2.9 °C and 147 nM.
The matching figures for `COCCOc1ccnc(Nc2ccc(C(F)(F)F)cc2)c1-c1noc(=O)[nH]1` [Example 62, 3-[4-(2-methoxyethoxy)-2-[4-(trifluoromethyl)anilino]-3-pyridyl]-4H-1,2,4-oxadiazol-5-one]: 5.5 °C and 61 nM.
As for `CC1(COc2ccnc(Nc3ccc(C(F)(F)F)cc3)c2-c2noc(=O)[nH]2)CC1` [Example 63, 3-[4-[(1-methylcyclopropyl)methoxy]-2-[4-(trifluoromethyl)anilino]-3-pyridyl]-4H-1,2,4-oxadiazol-5-one], the ΔTm at 7 µM in assay [1] stood at 3.4 °C. Also, in assay [2], the IC50 is 1550 nM.
For `O=c1[nH]c(-c2c(OC3CCOCC3)ccnc2Nc2ccc(C(F)(F)F)cc2)no1` [Example 64, 3-[4-tetrahydropyran-4-yloxy-2-[4-(trifluoromethyl)anilino]-3-pyridyl]-4H-1,2,4-oxadiazol-5-one] the same measures were 4.2 °C and 268 nM.
As for `O=c1[nH]c(-c2c(OCCF)ccnc2Nc2ccc(C(F)(F)F)cc2)no1` [Example 65, 3-[4-(2-fluoroethoxy)-2-[4-(trifluoromethyl)anilino]-3-pyridyl]-4H-1,2,4-oxadiazol-5-one], in assay [1], the ΔTm at 7 µM was found to be 6 °C. In assay [2], the IC50 is 81 nM.
For `COC(C)(C)CCOc1ccnc(Nc2ccc(C(F)(F)F)cc2)c1-c1noc(=O)[nH]1` [Example 66, 3-[4-(3-methoxy-3-methyl-butoxy)-2-[4-(trifluoromethyl)anilino]-3-pyridyl]-4H-1,2,4-oxadiazol-5-one] the same measures were 0.4 °C and 1470 nM.
In the case of `O=c1[nH]c(-c2c(OC3CCNCC3)ccnc2Nc2ccc(C(F)(F)F)cc2)no1` [Example 67, 3-[4-(4-piperidyloxy)-2-[4-(trifluoromethyl)anilino]-3-pyridyl]-4H-1,2,4-oxadiazol-5-one], the ΔTm at 7 µM in assay [1] was 7.1 °C. The IC50 in assay [2] was 10700 nM.

The term ΔTm denotes the change in melting temperature against a reference sample. As usually defined, the IC50 is the concentration that inhibits the measured activity by half.
